Measurements published in US20220144841A1, “TRISUBSTITUTED PYRAZOLO [1,5-A] PYRIMIDINE COMPOUNDS AS CDK7 INHIBITORS” (THE TRANSLATIONAL GENOMICS RESEARCH INSTITUTE, priority 2019, published 2022).
Where a name gives a salt, the structure may show the parent alone.

How the values were obtained:
[1] = target: T1, CDK7/CycH/MAT1 (Homo sapiens, UniProt P50613); test: Kinase Glo Assay; assay type: biochemical; details: Kinase-Glo Assay was used (compounds marked *), ATP 1 μM, 60 minutes at room temperature
T1 construct: purchased ProQinase 0366-0360-4
T1 sequence (P50613 whole entry): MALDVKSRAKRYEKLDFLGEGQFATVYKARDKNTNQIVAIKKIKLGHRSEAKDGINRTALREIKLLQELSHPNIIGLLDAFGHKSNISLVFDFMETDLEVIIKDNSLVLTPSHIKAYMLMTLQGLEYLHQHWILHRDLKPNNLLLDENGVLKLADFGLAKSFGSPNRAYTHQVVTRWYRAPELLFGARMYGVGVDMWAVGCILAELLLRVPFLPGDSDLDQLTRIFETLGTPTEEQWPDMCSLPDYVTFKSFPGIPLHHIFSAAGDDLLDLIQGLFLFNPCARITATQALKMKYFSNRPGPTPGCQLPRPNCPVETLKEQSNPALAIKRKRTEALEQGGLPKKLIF
T1 sequence (P51946 whole entry partner): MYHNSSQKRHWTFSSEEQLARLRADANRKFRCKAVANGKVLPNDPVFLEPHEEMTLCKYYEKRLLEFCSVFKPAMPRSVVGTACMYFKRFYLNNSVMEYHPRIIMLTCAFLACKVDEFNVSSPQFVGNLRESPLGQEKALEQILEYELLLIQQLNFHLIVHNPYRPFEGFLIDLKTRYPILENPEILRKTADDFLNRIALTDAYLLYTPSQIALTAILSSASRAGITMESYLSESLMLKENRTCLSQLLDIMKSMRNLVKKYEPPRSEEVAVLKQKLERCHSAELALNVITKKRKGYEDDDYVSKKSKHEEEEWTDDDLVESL
T1 sequence (P51948 whole entry partner): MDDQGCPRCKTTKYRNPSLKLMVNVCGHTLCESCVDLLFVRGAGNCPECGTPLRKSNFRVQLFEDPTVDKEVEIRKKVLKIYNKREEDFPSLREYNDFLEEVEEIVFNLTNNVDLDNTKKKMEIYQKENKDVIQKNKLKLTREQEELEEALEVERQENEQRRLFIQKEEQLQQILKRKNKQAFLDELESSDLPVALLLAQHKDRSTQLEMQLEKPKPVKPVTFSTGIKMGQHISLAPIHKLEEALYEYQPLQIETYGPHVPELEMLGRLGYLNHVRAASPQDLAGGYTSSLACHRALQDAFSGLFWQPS
Protocol: (§1) Assay Buffer: 50 mM HEPES, 3 mM MgCl2, 3 mM MnCl2, 1 mM DTT, 3 μM Na3VO4, pH 7.5
Kinase-Glo™ Assay (Promega #: V6711): ATP: 10 mM, Kinase-Glo™ Reagent 384-well white assay plates
A ten point serial dilution of compound was prepared at 5× concentration in assay buffer with the final assay concentrations starting at 30 μM, 10 μM, 3 μM, 1 μM . . . 0 μM. Enzyme and ATP were used at 40 ng and 1 μM, respectively. The assay plate was set up by mixing the components in a total reaction volume of 10 μL per well. The plate was centrifuged gently for 10 seconds and incubated at room temperature (RT) for 60 minutes in the dark. The Kinase-Glo Reagent was added and incubated as recommended. The reaction was quantified by measuring luminescence on the Perkin Elmer Envision plate reader. Data was analyzed using Graphpad Prism 7 software.

[2] = target: T1, CDK7/CycH/MAT1; test: Kinase ADP-Glo Assay; assay type: biochemical; details: ADP-Glo assay (compounds without *), ATP 1 μM, 60 minutes at room temperature
Protocol: as §1
Substrate RB: CTF Peptide (ProQinase #: 0040-0000-6)
ADP-Glo™ Assay (Promega #: V9101): ATP: 10 mM, ADP-Glo™ Reagent, Kinase Detection Reagent
384-well white assay plates
A ten point serial dilution of compound was prepared at 5× concentration in assay buffer with the final assay concentrations starting at 30 μM, 10 μM, 3 μM, 1 μM . . . 0 μM. Enzyme, substrate, and ATP were used at 40 ng, 200 ng (or 400 ng)^+ and 1 μM, respectively. The assay plate was set up by mixing the components in a total reaction volume of 10 μL per well. The plate was centrifuged gently for 10 seconds and incubated at room temperature (RT) for 60 minutes in the dark. The ADP-Glo Reagent and kinase detection reagent were added and incubated as recommended. The reaction was quantified by measuring luminescence on the Perkin Elmer Envision plate reader. Data was analyzed using Graphpad Prism 7 software. *With CDK2 enzyme, 400 ng of substrate was used.

IC50 [1] [nM]	IC50 [2] [nM]	Compound
–	< 100	Cc1cc(F)cc(Nc2cc(O[C@@H]3CNC[C@@H](O)C3)nc3c(C4CCC4)cnn23)c1 (relative stereo) [Compound I-57, trans-5-((3-cyclobutyl-7-((3-fluoro-5-methylphenyl)amino)pyrazolo [1,5-a]pyrimidin-5-yl)oxy)piperidin-3-ol]
–	< 100	CS(=O)(=O)c1cccc(Nc2cc(NC[C@H]3CCNC[C@@H]3O)nc3c(C4CC4)cnn23)c1 [Compound I-51, (3R,4R)-((3-cyclopropyl-7-((3-methylsulfonylphenyl)amino)pyrazolo[1,5-a]pyrimidin-5-yl)aminomethyl)piperidin-3-ol]
–	100 to 1000	Cc1cc(Nc2cc(O[C@H]3CCCNC3)nc3c(C4CC4)cnn23)cc(C(F)(F)F)c1 [Compound I-61, (S)-3-cyclopropyl-N-(5-methyl-3-trifluoromethylphenyl)-5-((piperidin-3-yl)oxy)pyrazolo[1,5-a]pyrimidin-7-amine]
–	> 1000	Cc1cc(F)cc(Nc2cc(NC[C@H]3CCCNC3)nc3c(C4CCC4)cnn23)c1 [Compound I-59, (S)-3-cyclobutyl-N^7-(3-fluoro-5-methylphenyl)-N^5-((piperidin-3-yl)methyl)pyrazolo[1,5-a]pyrimidine-5,7-diamine]
–	< 100	Cc1cc(C#N)cc(Nc2cc(O[C@H]3CCCNC3)nc3c(C4CCC4)cnn23)c1 [Compound I-70, (S)-3-((3-cyclobutyl-5-((piperidin-3-yl)oxy)pyrazolo[1,5-a]pyrimidin-7-yl)amino)-5-methylbenzonitrile]
–	< 100	Cc1cc(F)cc(Nc2cc(O[C@H]3CCCNC3)nc3c(C4CCC4)cnn23)c1 [Compound I-58, (S)-3-cyclobutyl-N-(3-fluoro-5-methylphenyl)-5-((piperidin-3-yl)oxy)pyrazolo[1,5-a]pyrimidin-7-amine]
–	< 100	Cc1cc(C#N)cc(Nc2cc(NC[C@H]3CCNC[C@@H]3O)nc3c(C4CC4)cnn23)c1 [Compound I-54, (3R,4R)-3-((3-cyclopropyl-5-((3-hydroxypiperidin-4-yl)methylamino)pyrazolo[1,5-a]pyrimidin-7-yl)amino)-5-methylbenzonitrile]
–	100 to 1000	Cc1cc(Nc2cc(N[C@H]3CCCNC3)nc3c(C4CC4)cnn23)cc(C(F)(F)F)c1 [Compound I-62, (S)-3-cyclopropyl-N^7-(5-methyl-3-trifluoromethylphenyl)-N^5-(piperidin-3-yl)pyrazolo[1,5-a]pyrimidine-5,7-diamine]
–	< 100	Cc1cc(Nc2cc(O[C@H]3CCCNC3)nc3c(C4CCC4)cnn23)cc(C(F)(F)F)c1 [Compound I-66, (S)-3-cyclobutyl-N-(5-methyl-3-trifluoromethylphenyl)-5-((piperidin-3-yl)oxy)pyrazolo[1,5-a]pyrimidin-7-amine]
–	< 100	Cc1cc(F)cc(Nc2cc(NC[C@H]3CCNC[C@@H]3O)nc3c(C4CCC4)cnn23)c1 [Compound I-52, (3R,4R)-((3-cyclobutyl-7-((3-fluoro-5-methylphenyl)amino)pyrazolo [1,5-a]pyrimidin-5-yl)aminomethyl)piperidin-3-ol]
–	< 100	Cc1cc(C#N)cc(Nc2cc(O[C@H]3CCCNC3)nc3c(C4CC4)cnn23)c1 [Compound I-69, (S)-3-((3-cyclopropyl-5-((piperidin-3-yl)oxy)pyrazolo [1,5-a]pyrimidin-7-yl)amino)-5-methylbenzonitrile]
–	> 1000	N#Cc1cc(F)cc(Nc2cc(OC[C@H]3CCCNC3)nc3c(C4CCC4)cnn23)c1 [Compound I-60, (S)-3-((3-cyclobutyl-5-((piperidin-3-yl)methoxy)pyrazolo[1,5-a]pyrimidin-7-yl)amino)-5-fluorobenzonitrile]
–	100 to 1000	Cc1cc(F)cc(Nc2cc(N[C@@H]3CNC[C@@H](O)C3)nc3c(C4CCC4)cnn23)c1 [Compound I-56, (3S,5S)-5-((3-cyclobutyl-7-((3-fluoro-5-methylphenyl)amino)pyrazolo [1,5-a]pyrimidin-5-yl)amino)piperidin-3-ol]

The next lines start with the compound.

Compound	IC50 [1] [nM]	IC50 [2] [nM]
Fc1cccc(CNc2cc(N[C@H]3CCCNC3)nc3c(C4CC4)cnn23)c1 [Compound I-32, (S)-3-cyclopropyl-N^7-(3-fluorobenzyl)-N^5-(piperidin-3-yl)pyrazolo[1,5-a]pyrimidine-5,7-diamine hydrochloride]	100 to 1000	–
OCCN1CCC[C@H](Nc2cc(NCc3cccc(F)c3)n3ncc(C4CC4)c3n2)C1 [Compound I-33, (S)-2-(3-((3-cyclopropyl-7-((3-fluorobenzyl)amino)pyrazolo [1,5-a]pyrimidin-5-yl)amino)piperidin-1-yl)ethan-l-ol]	100 to 1000	–
FC(F)(F)Cc1cccc(Nc2cc(N[C@H]3CCCNC3)nc3c(C4CC4)cnn23)c1 [Compound I-10]	–	100 to 1000
N#Cc1cnn2c(NCc3cc(F)cc(Cl)c3)cc(N[C@H]3CCCNC3)nc12 [Compound I-27, (S)-7-((3-chloro-5-fluorobenzyl)amino)-5-((piperidin-3-yl)amino)pyrazolo[1,5-a]pyrimidine-3-carbonitrile]	100 to 1000	–
N#Cc1cc(F)cc(Nc2cc(NC[C@@H]3CCNC[C@H]3O)nc3c(C4CC4)cnn23)c1 [Compound I-16, (3S,4S)-3-((3-cyclopropyl-5-(((3-hydroxy)piperidin-4-yl)methylamino)pyrazolo[1,5-a]pyrimidin-7-yl)amino)-5-fluorobenzonitrile trifluoroacetate salt]	–	> 1000
N[C@H]1CC[C@H](Nc2cc(Nc3cccc(F)c3)n3ncc(C4CC4)c3n2)CC1 [Compound I-6, Trans-N^5-(4-aminocyclohexyl)-3-cyclopropyl-N^7-(3-fluorophenyl)pyrazolo[1,5-a]pyrimidine-5,7-diamine]	–	100 to 1000
Fc1cccc(Nc2cc(O[C@H]3CCCNC3)nc3c(C4CC4)cnn23)c1 [Compound I-4, (S)-3-cyclopropyl-N-(3-fluorophenyl)-5-((piperidin-3-yl)oxy)pyrazolo[1,5-a]pyrimidin-7-amine]	–	< 100
O[C@@H]1CNCC[C@H]1CNc1cc(Nc2cccc(F)c2)n2ncc(C3CC3)c2n1 [Compound I-11, (3S,4S)-4-(((3-cyclopropyl-7-((3-fluorophenyl)amino)pyrazolo [1,5-a]pyrimidin-5-yl)amino)methyl)piperidin-3-ol]	–	< 100
O[C@@H]1CNCC[C@@H]1CNc1cc(Nc2cccc(F)c2)n2ncc(C3CC3)c2n1 [Compound I-12, (3S,4R)-4-((3-cyclopropyl-7-((3-fluorophenyl)amino)pyrazolo [1,5-a]pyrimidin-5-yl)aminomethyl)piperidin-3-ol]	–	100 to 1000
O[C@@H]1CNCC[C@H]1CNc1cc(Nc2cc(F)cc(F)c2)n2ncc(C3CC3)c2n1 [Compound I-47, (3S,4S)-4-((3-cyclopropyl-7-((3,5-difluorophenyl)amino)pyrazolo[1,5-a]pyrimidin-5-yl)aminomethyl)piperidin-3-ol]	–	100 to 1000
FC(F)(F)c1cccc(Nc2cc(N[C@H]3CCCNC3)nc3c(C4CC4)cnn23)c1 [Compound I-8]	–	< 100
Clc1cccc(Nc2cc(N[C@H]3CCCNC3)nc3c(C4CC4)cnn23)c1 [Compound I-18]	–	< 100
O[C@H]1CNCC[C@@H]1CNc1cc(Nc2cccc(F)c2)n2ncc(C3CCC3)c2n1 [Compound I-50]	–	< 100
Fc1cccc(Nc2cc(NC[C@H]3CCCNC3)nc3c(C4CC4)cnn23)c1 [Compound I-13]	–	> 1000
Cc1cc(F)cc(Nc2cc(NC[C@H]3CCNC[C@@H]3O)nc3c(C4CC4)cnn23)c1 [Compound I-49, (3R,4R)-4-((3-cyclopropyl-7-((3-fluoro-5-methylphenyl)amino)pyrazolo [1,5-a]pyrimidin-5-yl)aminomethyl)piperidin-3-ol]	–	< 100
O[C@H]1CCNC[C@@H]1Nc1cc(Nc2cccc(F)c2)n2ncc(C3CC3)c2n1 [Compound I-21, (3S,4S)-3-((3-cyclopropyl-7-((3-fluorophenyl)amino)pyrazolo [1,5-a]pyrimidin-5-yl)amino)piperidin-4-ol hydrochloride]	–	> 1000
N#Cc1cnn2c(NCc3cccc(F)c3)cc(N[C@H]3CCCNC3)nc12 [Compound I-29, (S)-7-((3-fluorobenzyl)amino)-5-((piperidin-3-yl)amino)pyrazolo[1,5-a]pyrimidine-3-carbonitrile]	–	100 to 1000
N#Cc1cccc(Nc2cc(N[C@H]3CCCNC3)nc3c(C4CC4)cnn23)c1 [Compound I-9, (S)-3-((3-cyclopropyl-5-((piperidin-3-yl)amino)pyrazolo[1,5-a]pyrimidin-7-yl)amino)benzonitrile]	–	< 100
N[C@H]1CC[C@@H](Nc2cc(Nc3cccc(F)c3)n3ncc(C4CC4)c3n2)CC1 [Compound I-7, Cis-N^5-(4-aminocyclohexyl)-3-cyclopropyl-N^7-(3-fluorophenyl)pyrazolo[1,5-a]pyrimidine-5,7-diamine]	–	100 to 1000
